Experiments:
[1] = system: Plasmodium berghei; assay: Antimalarial activity against Plasmodium berghei infected in mouse model infected with assessed as reduction in parasitemia at 100 mg/kg; format: functional; parameters: scale not given: the % may be the effect or the level left
[2] = In vivo inhibition of BACE-1 in wild type Hartley guinea pig assessed as reduction in amyloid beta level in cortex at 30 mg/kg, po administered twice daily for 2.5 days; format: functional; conditions: Cavia porcellus, 60 h, time 2.5 day
[3] = In vivo inhibition of BACE-1 in wild type Hartley guinea pig assessed as reduction in amyloid beta level in cerebrospinal fluid at 30 mg/kg, po administered twice daily for 2.5 days; format: functional; conditions: Cavia porcellus, 60 h, time 2.5 day
[4] = Oral bioavailability in rat; format: ADME, organism-based; conditions: in vivo
[5] = system: Hepatitis C virus; assay: Antiviral activity against HCV; format: functional, organism-based, Hepacivirus hominis
[6] = target: ATP-dependent translocase ABCB1 (Homo sapiens, UniProt P08183); assay: Substrate activity at human P-gp assessed as transport ratio
[7] = Inhibition of HCV NS3/4A protease; parameters: species or system Hepacivirus hominis
[8] = Binding affinity to CGRP (unknown origin); parameters: species or system Homo sapiens

Sequence of ATP-dependent translocase ABCB1 (P08183 whole entry): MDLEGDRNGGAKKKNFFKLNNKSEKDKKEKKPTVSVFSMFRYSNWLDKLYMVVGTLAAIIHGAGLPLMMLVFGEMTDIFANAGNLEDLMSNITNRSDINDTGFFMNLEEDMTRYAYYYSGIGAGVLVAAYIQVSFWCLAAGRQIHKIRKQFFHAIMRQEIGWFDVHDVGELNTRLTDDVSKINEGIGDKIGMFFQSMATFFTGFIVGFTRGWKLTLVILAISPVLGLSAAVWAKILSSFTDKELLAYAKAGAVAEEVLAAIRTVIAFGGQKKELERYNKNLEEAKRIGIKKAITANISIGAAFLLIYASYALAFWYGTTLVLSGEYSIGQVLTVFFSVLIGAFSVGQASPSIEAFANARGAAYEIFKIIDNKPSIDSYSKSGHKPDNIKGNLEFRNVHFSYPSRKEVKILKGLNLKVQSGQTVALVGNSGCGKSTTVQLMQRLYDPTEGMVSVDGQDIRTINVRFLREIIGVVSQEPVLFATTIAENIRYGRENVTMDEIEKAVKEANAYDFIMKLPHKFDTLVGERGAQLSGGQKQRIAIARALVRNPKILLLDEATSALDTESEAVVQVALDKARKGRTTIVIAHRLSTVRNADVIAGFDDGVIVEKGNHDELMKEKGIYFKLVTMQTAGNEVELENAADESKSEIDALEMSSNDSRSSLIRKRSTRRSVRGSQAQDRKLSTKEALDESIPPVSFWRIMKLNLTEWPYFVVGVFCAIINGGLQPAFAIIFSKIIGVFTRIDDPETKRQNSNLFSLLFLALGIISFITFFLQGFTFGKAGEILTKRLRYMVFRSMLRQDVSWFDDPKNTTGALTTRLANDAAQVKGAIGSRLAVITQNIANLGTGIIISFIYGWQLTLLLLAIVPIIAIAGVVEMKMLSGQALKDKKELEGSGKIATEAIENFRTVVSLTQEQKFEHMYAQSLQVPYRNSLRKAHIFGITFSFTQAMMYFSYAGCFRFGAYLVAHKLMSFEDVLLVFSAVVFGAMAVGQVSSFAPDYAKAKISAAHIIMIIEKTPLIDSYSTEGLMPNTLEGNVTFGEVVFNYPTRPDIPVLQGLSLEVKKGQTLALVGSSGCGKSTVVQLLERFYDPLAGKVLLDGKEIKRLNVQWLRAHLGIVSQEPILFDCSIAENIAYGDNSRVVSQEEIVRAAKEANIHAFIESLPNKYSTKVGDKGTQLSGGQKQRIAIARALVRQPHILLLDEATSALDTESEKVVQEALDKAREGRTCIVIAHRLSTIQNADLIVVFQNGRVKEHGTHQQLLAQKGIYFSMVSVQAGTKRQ

For CC1CCc2c([nH]c3ccccc23)C2(N1)C(=O)Nc1ccc(Cl)cc12 (stereo not given), the Activity [1] was 96%.
In the case of CC(=O)N[C@@H](Cc1cc(F)cc(F)c1)[C@H](O)CNC1(c2cccc(C(C)(C)C(F)F)c2)CC1, the inhibition in vivo at 30 mg/kg [2] is reported as 28% and the inhibition in vivo at 30 mg/kg [3] is reported as 32%.
C=C[C@@H]1C[C@]1(NC(=O)[C@@H]1C[C@@H](Oc2cc(-c3csc(NC(C)C)n3)nc3cc(OC)ccc23)CN1C(=O)[C@@H](NC(=O)OC1CCCC1)C(C)(C)C)P(=O)(O)Cc1ccccc1 gave a bioavailability [4] of 0.5%.
COc1ccc2c(O[C@@H]3C[C@H]4C(=O)N[C@]5(P(=O)(O)Cc6ccccc6)C[C@H]5/C=C/CCCCC[C@H](NC(=O)OC5CCCC5)C(=O)N4C3)cc(-c3csc(NC(C)C)n3)nc2c1 showed an EC50 [5] of 10 nM.
C[C@@]1(c2cc(F)cc(F)c2)CN([11CH3])C2(CCCC2)C(=O)N1CC(=O)Nc1ccc2c(c1)C[C@@]1(C2)C(=O)Nc2ncccc21 gave a Ratio [6] of 1.7.
Compound COc1ccc2c(O[C@@H]3C[C@H]4C(=O)N[C@]5(C(=O)NS(=O)(=O)C6CC6)C[C@H]5/C=C\CCCCN(C)C(=O)[C@@H]4C3)cc(-c3nc(C(C)C)cs3)nc2c1C has an EC50 [7] of 8.1 nM.
Compound O=C(CN1C(=O)C2(CCCC2)NC[C@@H]1c1cc(F)cc(F)c1)Nc1ccc2c(c1)C[C@@]1(C2)C(=O)Nc2ncccc21 has a Ki [8] of 0.57 nM.
O=C(CN1C(=O)C2(CCCC2)NC[C@@H]1c1ccccc1)Nc1ccc2c(c1)C[C@@]1(C2)C(=O)Nc2ncccc21 gave a Ki [8] of 0.067 nM.
In the case of COc1ccc2c(O[C@@H]3C[C@H]4C(=O)N[C@]5(C(=O)NS(=O)(=O)C6CC6)C[C@@]5(F)/C=C\CCCCN(C)C(=O)[C@@H]4C3)cc(-c3nc(C(C)C)cs3)nc2c1C, the EC50 [7] is reported as 15000 nM.
Work on COc1cnc(O[C@@H]2C[C@@H](C(=O)N[C@@H](CC(F)F)C(=O)NS(=O)(=O)C3CC3)N(C(=O)C(NC(=O)OC(C)(C)C)C(C)(C)C)C2)c2cc(Cl)ccc12 (single isomer, unassigned) yielded an IC50 [7] of 976 nM.
COc1cnc(O[C@@H]2C[C@@H](C(=O)N[C@]3(C(=O)NS(=O)(=O)C4CC4)C[C@H]3C(F)(F)F)N(C(=O)C(NC(=O)OC(C)(C)C)C(C)(C)C)C2)c2cc(Cl)ccc12 (single isomer, unassigned) showed an IC50 [7] of 17 nM.
With CC[C@H](NC(=O)[C@@H]1C[C@@H](Oc2ncc(OC)c3ccc(Cl)cc23)CN1C(=O)C(NC(=O)OC(C)(C)C)C(C)(C)C)C(=O)NS(=O)(=O)C1CC1 (single isomer, unassigned) the IC50 [7] was 3080 nM.
COc1cnc(O[C@@H]2C[C@@H](C(=O)N[C@]3(C(=O)NS(=O)(=O)C4CC4)C[C@H]3C)N(C(=O)C(NC(=O)OC(C)(C)C)C(C)(C)C)C2)c2cc(Cl)ccc12 (single isomer, unassigned) showed an IC50 [7] of 13 nM.
In the case of COc1cnc(O[C@@H]2C[C@@H](C(=O)N[C@]3(C(=O)NS(=O)(=O)C4CC4)C[C@H]3CC(F)F)N(C(=O)C(NC(=O)OC(C)(C)C)C(C)(C)C)C2)c2cc(Cl)ccc12 (single isomer, unassigned), the IC50 [7] is reported as 1 nM.
In the case of COc1ccc2c(O[C@@H]3C[C@H]4C(=O)N[C@]5(P(=O)(O)Cc6c(F)cccc6F)C[C@H]5CCCCCCC[C@H](NC(=O)OC5CCCC5)C(=O)N4C3)cc(-c3csc(NC(C)C)n3)nc2c1Cl [GS-9256], the EC50 [5] is reported as 20 nM, the IC50 [7] is reported as 4 nM and the Ki [7] is reported as 0.089 nM.
In the case of O=C(CN1C(=O)C2(CCCC2)NC[C@H]1c1cc(F)cc(F)c1)Nc1ccc2c(c1)C[C@@]1(C2)C(=O)Nc2ncccc21 [MK3207], the Ki [8] is reported as 0.017 nM.
In the case of NCCCC[C@H](NC(=O)[C@@H](Cc1cc(Br)c(O)c(Br)c1)NC(=O)N1CCC(N2Cc3ccccc3NC2=O)CC1)C(=O)N1CCN(c2ccncc2)CC1 [OLCEGEPANT], the Ki [8] is reported as 0.01 nM.

Reference: ChEMBL document CHEMBL5244227, “Applications of fluorine-containing amino acids for drug design” (Eur J Med Chem, 2020)
